Where two headings read alike, the source gives them in different places.
Details: amide bond, 18-membered ring, HATU/HOBt/DIEA

CC[C@H](C)[C@@H]1NC(=O)[C@H](CC(C)C)NC(=O)[C@H](Cc2cn(C(=O)OC(C)(C)C)c3ccccc23)NC(=O)[C@@H](CCCNC(=O)OC(C)(C)C)NC(=O)[C@H](CC(=O)NC(c2ccccc2)(c2ccccc2)c2ccccc2)NC(=O)[C@H](C(C)C)NC1=O [cyclo(Asn(Trt)-D-Orn(Boc)-Trp(Boc)-Leu-Ile-Val)]
ring closure, isolated yield (from H-Asn(Trt)-dOrn(Boc)-Trp(Boc)-Leu-Ile-Val-OH): 47%

CC(C)C[C@H]1NC(=O)[C@H](CC(C)C)N(C)C(=O)[C@H](Cc2cn(C(=O)OC(C)(C)C)c3ccccc23)NC(=O)[C@@H](CCCNC(=O)OC(C)(C)C)NC(=O)[C@H](CC(=O)NC(c2ccccc2)(c2ccccc2)c2ccccc2)N(C)C(=O)[C@H](C(C)C)NC1=O [cyclo(Val-N-Me-Asn(Trt)-D-Orn(Boc)-Trp(Boc)-N-Me-Leu-D-Leu)]
ring closure, isolated yield (from H-Val-MeAsn(Trt)-dOrn(Boc)-Trp(Boc)-MeLeu-dLeu-OH): 80%

cyclo(D-Phe(4-Cl)-D-Orn(Boc)-Asn(Trt)-Val-D-Leu-Leu)
ring closure, isolated yield: 43%

CC(C)C[C@@H]1NC(=O)[C@H](Cc2cn(C(=O)OC(C)(C)C)c3ccccc23)NC(=O)[C@@H](CCCNC(=O)OC(C)(C)C)NC(=O)[C@H](CC(=O)NC(c2ccccc2)(c2ccccc2)c2ccccc2)NC(=O)[C@H](C(C)C)NC(=O)[C@@H](C)NC1=O [cyclo(Trp(Boc)-D-Orn(Boc)-Asn(Trt)-Val-D-Ala-Leu)]
ring closure, isolated yield (from H-dAla-Val-Asn(Trt)-dOrn(Boc)-Trp(Boc)-Leu-OH): 64%

CC(C)C[C@@H]1NC(=O)[C@H](Cc2cn(C(=O)OC(C)(C)C)c3ccccc23)NC(=O)[C@@H](CCCNC(=O)OC(C)(C)C)NC(=O)[C@H](CC(=O)NC(c2ccccc2)(c2ccccc2)c2ccccc2)NC(=O)[C@H](C(C)C)NC(=O)[C@@H](CC(C)C)NC1=O [cyclo (Trp (Boc)-D-Orn(Boc)-Asn(Trt)-Val-D-Leu-Leu)]
ring closure, isolated yield (from H-dLeu-Val-Asn(Trt)-dOrn(Boc)-Trp(Boc)-Leu-OH): 68%

CC(C)C[C@H]1NC(=O)[C@@H](Cc2ccc(Cl)cc2)NC(=O)[C@H](Cc2cn(C(=O)OC(C)(C)C)c3ccccc23)NC(=O)[C@@H](CCCNC(=O)OC(C)(C)C)NC(=O)[C@H](CC(=O)NC(c2ccccc2)(c2ccccc2)c2ccccc2)NC(=O)[C@H](C(C)C)NC1=O [cyclo(Asn(Trt)-D-Orn(Boc)-Trp(Boc)-D-Phe(4-Cl)-D-Leu-Val)]
ring closure, isolated yield (from H-Asn(Trt)-dOrn(Boc)-Trp(Boc)-dPhe(4-Cl)-dLeu-Val-OH): 54%

CC(C)C[C@@H]1NC(=O)[C@H](Cc2cn(C(=O)OC(C)(C)C)c3ccccc23)NC(=O)[C@@H](CCCNC(=O)OC(C)(C)C)NC(=O)[C@H](CC(=O)NC(c2ccccc2)(c2ccccc2)c2ccccc2)NC(=O)[C@H](C(C)C)NC(=O)[C@@H](Cc2ccc(Cl)cc2)NC1=O [cyclo(D-Phe(4-Cl)-Val-Asn(Trt)-D-Orn(Boc)-Trp(Boc)-Leu)]
ring closure, isolated yield (from H-dPhe(4-Cl)-Val-Asn(Trt)-dOrn(Boc)-Trp(Boc)-Leu-OH): 53%

CC[C@H](C)[C@@H]1NC(=O)[C@H]([C@@H](C)CC)NC(=O)[C@@H](CC(C)C)NC(=O)[C@H](CC(C)C)NC(=O)[C@H](Cc2cn(C(=O)OC(C)(C)C)c3ccccc23)NC(=O)[C@@H](CCCNC(=O)OC(C)(C)C)NC1=O [cyclo(D-Leu-Ile-Ile-D-Orn(Boc)-Trp(Boc)-Leu)]
ring closure, isolated yield (from H-dLeu-Ile-Ile-dOrn(Boc)-Trp(Boc)-Leu-OH): 54%

CC[C@H](C)[C@@H]1NC(=O)[C@@H](CC(C)C)NC(=O)[C@H](CC(C)C)NC(=O)[C@H](Cc2cn(C(=O)OC(C)(C)C)c3ccccc23)NC(=O)[C@@H](CCCNC(=N)NS(=O)(=O)c2c(C)c(C)c3c(c2C)CC(C)(C)O3)NC(=O)[C@H](CC(=O)NC(c2ccccc2)(c2ccccc2)c2ccccc2)NC1=O [cyclo (D-Leu-Ile-Asn(Trt)-D-Arg (Pbf)-Trp(Boc)-Leu)]
ring closure, isolated yield (from H-dLeu-Ile-Asn(Trt)-dArg(Pbf)-Trp(Boc)-Leu-OH): 70%

CC(C)C[C@@H]1NC(=O)[C@H](Cc2cn(C(=O)OC(C)(C)C)c3ccccc23)NC(=O)[C@@H](CCCNC(=O)OC(C)(C)C)NC(=O)[C@H](C)NC(=O)[C@H](C(C)C)NC(=O)[C@@H](CC(C)C)NC1=O [cyclo(Trp(Boc)-D-Orn(Boc)-Ala-Val-D-Leu-Leu)]
ring closure, isolated yield (from H-dLeu-Val-Ala-dOrn(Boc)-Trp(Boc)-Leu-OH): 56%

CC(C)C[C@@H]1NC(=O)[C@H](Cc2cn(C(=O)OC(C)(C)C)c3ccccc23)NC(=O)[C@@H](CCCNC(=O)OC(C)(C)C)NC(=O)[C@@H](CCCNC(=O)OC(C)(C)C)NC(=O)[C@H](C(C)C)NC(=O)[C@@H](CC(C)C)NC1=O [cyclo(D-Leu-Val-D-Orn(Boc)-D-Orn(Boc)-Trp(Boc)-Leu)]
ring closure, isolated yield (from H-dLeu-Val-dOrn(Boc)-dOrn(Boc)-Trp(Boc)-Leu-OH): 40%

CC[C@H](C)[C@@H]1NC(=O)[C@H](Cc2cn(C(=O)OC(C)(C)C)c3ccccc23)NC(=O)[C@@H](CCCNC(=O)OC(C)(C)C)NC(=O)[C@H](CC(=O)NC(c2ccccc2)(c2ccccc2)c2ccccc2)NC(=O)[C@H](C(C)C)NC(=O)[C@@H](CC(C)C)NC1=O [cyclo(Asn(Trt)-D-Orn(Boc)-Trp(Boc)-Ile-D-Leu-Val)]
ring closure, isolated yield (from H-Asn(Trt)-dOrn(Boc)-Trp(Boc)-Ile-dLeu-Val-OH): 47%

CC[C@H](C)[C@@H]1NC(=O)[C@@H](CC(C)C)NC(=O)[C@H](CC(C)C)NC(=O)[C@H](Cc2cn(C(=O)OC(C)(C)C)c3ccccc23)NC(=O)[C@@H](CCCNC(=O)OC(C)(C)C)NC(=O)[C@H](COC(C)(C)C)NC1=O [cyclo(Trp(Boc)-Leu-D-Leu-Ile-Ser(tBu)-D-Orn(Boc))]
ring closure, isolated yield (from H-Trp(Boc)-Leu-dLeu-Ile-Ser(tBu)-dOrn(Boc)-OH): 68%

CC(C)C[C@@H]1NC(=O)[C@H](Cc2cn(C(=O)OC(C)(C)C)c3ccccc23)NC(=O)[C@@H](CCCNC(=O)OC(C)(C)C)NC(=O)[C@H](CC(=O)NC(c2ccccc2)(c2ccccc2)c2ccccc2)NC(=O)[C@H](C(C)C)N(C)C(=O)[C@@H](CC(C)C)NC1=O [cyclo(D-Leu-N-Me-Val-Asn(Trt)-D-Orn(Boc)-Trp(Boc)-Leu)]
ring closure, isolated yield (from H-dLeu-MeVal-Asn(Trt)-dOrn(Boc)-Trp(Boc)-Leu-OH): 60%

CC(C)C[C@H]1NC(=O)[C@H](CC(C)C)N(C)C(=O)[C@H](Cc2cn(C(=O)OC(C)(C)C)c3ccccc23)NC(=O)[C@@H](CCCNC(=O)OC(C)(C)C)NC(=O)[C@H](CC(=O)NC(c2ccccc2)(c2ccccc2)c2ccccc2)NC(=O)[C@H](C(C)C)N(C)C1=O [cyclo (Trp(Boc)-N-Me-Leu-D-Leu-N-Me-Val-Asn(Trt)-D-Orn(Boc))]
ring closure, isolated yield (from H-Trp(Boc)-MeLeu-dLeu-MeVal-Asn(Trt)-dOrn(Boc)-OH): 73%

CC[C@H](C)[C@@H]1NC(=O)[C@@H](CC(C)C)NC(=O)[C@H](CC(C)C)NC(=O)[C@H](Cc2cn(C(=O)OC(C)(C)C)c3ccccc23)NC(=O)[C@@H](CCCNC(=O)OC(C)(C)C)NC(=O)[C@H](CC(=O)NC(c2ccccc2)(c2ccccc2)c2ccccc2)NC1=O [cyclo (D-Leu-Ile-Asn(Trt)-D-Orn(Boc)-Trp(Boc)-Leu)]
ring closure, isolated yield (from H-dLeu-Ile-Asn(Trt)-dOrn(Boc)-Trp(Boc)-Leu-OH): 52%

CC[C@H](C)[C@@H]1NC(=O)[C@@H](Cc2ccc(Cl)cc2)NC(=O)[C@H](CC(C)C)NC(=O)[C@H](Cc2cn(C(=O)OC(C)(C)C)c3ccccc23)NC(=O)[C@@H](CCCNC(=O)OC(C)(C)C)NC(=O)[C@@H](CCCNC(=O)OC(C)(C)C)NC1=O [cyclo(D-Phe (4-Cl)-Ile-D-Orn(Boc)-D-Orn(Boc)-Trp(Boc)-Leu)]
ring closure, isolated yield (from H-dPhe(4-Cl)-Ile-dOrn(Boc)-dOrn(Boc)-Trp(Boc)-Leu-OH): 55%

COc1ccc(C[C@@H]2NC(=O)[C@@H](CCCNC(=O)OC(C)(C)C)NC(=O)[C@H](CC(=O)NC(c3ccccc3)(c3ccccc3)c3ccccc3)NC(=O)[C@H](C(C)C)NC(=O)[C@@H](CC(C)C)NC(=O)[C@H](CC(C)C)NC2=O)cc1 [cyclo(D-Leu-Val-Asn(Trt)-D-Orn(Boc)-Phe(4-OMe)-Leu)]
ring closure, isolated yield (from H-dLeu-Val-Asn(Trt)-dOrn(Boc)-Phe(4-OMe)-Leu-OH): 41%

CC(C)C[C@@H]1NC(=O)[C@@H](CC(C)C)NC(=O)[C@H](C(C)C)NC(=O)[C@H](CC(=O)NC(c2ccccc2)(c2ccccc2)c2ccccc2)NC(=O)[C@@H](CCCNC(=O)OC(C)(C)C)NC(=O)[C@H](Cc2cn(C(=O)OC(C)(C)C)c3ccccc23)NC1=O [cyclo(Trp (Boc)-D-Orn (Boc)-Asn(Trt)-Val-D-Leu-Leu)]
ring closure, isolated yield (from H-Trp(Boc)-dOrn(Boc)-Asn(Trt)-Val-dLeu-Leu-OH, DMF, 1.0 mM): 50%

CC(C)C[C@H]1NC(=O)[C@H](C)NC(=O)[C@H](Cc2cn(C(=O)OC(C)(C)C)c3ccccc23)NC(=O)[C@@H](CCCNC(=O)OC(C)(C)C)NC(=O)[C@H](CC(=O)NC(c2ccccc2)(c2ccccc2)c2ccccc2)NC(=O)[C@H](C(C)C)NC1=O [cyclo(Trp (Boc)-D-Orn(Boc)-Asn(Trt)-Val-D-Leu-Ala)]
ring closure, isolated yield (from H-dLeu-Val-Asn(Trt)-dOrn(Boc)-Trp(Boc)-Ala-OH): 45%

CC(C)C[C@@H]1NC(=O)[C@H](Cc2cn(C(=O)OC(C)(C)C)c3ccccc23)NC(=O)[C@@H](CCCNC(=O)OC(C)(C)C)NC(=O)[C@H](CC(=O)NC(c2ccccc2)(c2ccccc2)c2ccccc2)N(C)C(=O)[C@H](C(C)C)NC(=O)[C@@H](CC(C)C)N(C)C1=O [cyclo(Trp(Boc)-Leu-N-Me-D-Leu-Val-N-Me-Asn(Trt)-D-Orn(Boc))]
ring closure, isolated yield (from H-Trp(Boc)-Leu-dMeLeu-Val-MeAsn(Trt)-dOrn(Boc)-OH): 60%

— PMC5397059, “Design, synthesis and structure-activity relationship study of wollamide B; a new potential anti TB agent” (PLoS ONE, 2017)
